Data published in the NIST ThermoML archive (doi:10.1021/je050065n).

Columns and labels:
[1] = molar heat capacity at constant pressure; details: 101.33 kPa
[2] = Molar enthalpy of transition or fusion; details: Crystal

CCCCCCCCCCC(=O)OCC [ethyl undecanoate]
[1]
Details	molar heat capacity at constant pressure [J/K/mol]
111.58 K, Crystal	173.66
113.84 K, Crystal	175.94
116.71 K, Crystal	178.91
119.57 K, Crystal	181.88
122.42 K, Crystal	185.27
128.15 K, Crystal	190.48
131.02 K, Crystal	194.47
133.86 K, Crystal	198.69
136.66 K, Crystal	198.56
139.44 K, Crystal	201.64
142.19 K, Crystal	204.69
144.9 K, Crystal	207.94
147.59 K, Crystal	211.29
150.26 K, Crystal	213.75
152.89 K, Crystal	217.3
155.51 K, Crystal	220.97
158.1 K, Crystal	224.09
160.67 K, Crystal	229.12
163.21 K, Crystal	233.25
165.73 K, Crystal	236.15
168.24 K, Crystal	230.57
170.74 K, Crystal	232.17
173.23 K, Crystal	234.76
175.7 K, Crystal	236.78
178.15 K, Crystal	239.4
180.59 K, Crystal	242.15
183.01 K, Crystal	244.19
185.42 K, Crystal	245.75
187.81 K, Crystal	248.17
190.18 K, Crystal	251.89
192.55 K, Crystal	256.43
194.9 K, Crystal	257.21
197.24 K, Crystal	257.78
199.56 K, Crystal	262.12
201.88 K, Crystal	266.33
204.18 K, Crystal	269.86
206.47 K, Crystal	268.45
208.75 K, Crystal	272.25
211.01 K, Crystal	276.09
213.26 K, Crystal	279.59
215.5 K, Crystal	279.55
217.73 K, Crystal	283.48
219.95 K, Crystal	287.5
222.16 K, Crystal	290.42
224.36 K, Crystal	293.74
226.54 K, Crystal	297.69
228.71 K, Crystal	302.05
230.87 K, Crystal	307.08
233.01 K, Crystal	312.1
235.14 K, Crystal	318.94
237.26 K, Crystal	327.12
239.36 K, Crystal	337.32
241.44 K, Crystal	349.15
243.49 K, Crystal	366.65
245.51 K, Crystal	390.29
247.49 K, Crystal	425.06
265.23 K, Liquid	419.66
267.18 K, Liquid	419.56
269.12 K, Liquid	420.55
271.06 K, Liquid	421.01
272.99 K, Liquid	421.34
274.93 K, Liquid	422.4
276.86 K, Liquid	423.5
278.79 K, Liquid	424.54
280.72 K, Liquid	424.74
282.65 K, Liquid	425.25
284.57 K, Liquid	425.82
286.49 K, Liquid	426.92
288.42 K, Liquid	427.56
290.34 K, Liquid	427.6
292.25 K, Liquid	429.47
292.35 K, Liquid	429.73
293.82 K, Liquid	430.15
294.17 K, Liquid	430.48
295.74 K, Liquid	431.35
296.09 K, Liquid	431.3
297.65 K, Liquid	432.04
298 K, Liquid	431.45
299.55 K, Liquid	433.51
299.92 K, Liquid	432.3
301.45 K, Liquid	434.67
301.84 K, Liquid	434.2
303.35 K, Liquid	436.03
303.75 K, Liquid	436.09
305.23 K, Liquid	437.3
305.67 K, Liquid	436.86
307.12 K, Liquid	438.29
307.58 K, Liquid	437.94
309 K, Liquid	438.55
309.5 K, Liquid	438.69
310.87 K, Liquid	439.73
311.41 K, Liquid	439.51
312.74 K, Liquid	440.36
313.32 K, Liquid	440.63
314.61 K, Liquid	441.72
315.24 K, Liquid	441.69
316.48 K, Liquid	441.83
317.15 K, Liquid	443.16
318.35 K, Liquid	443.44
320.22 K, Liquid	444.36
322.09 K, Liquid	445.9
323.96 K, Liquid	447.6
325.83 K, Liquid	448.49
327.7 K, Liquid	449.5
329.57 K, Liquid	450.4
331.44 K, Liquid	451.66
333.31 K, Liquid	453.33
335.19 K, Liquid	455.41
337.06 K, Liquid	456.14
338.94 K, Liquid	456.81
340.81 K, Liquid	458.35
342.69 K, Liquid	459.47
344.57 K, Liquid	461
346.45 K, Liquid	462.31
348.34 K, Liquid	463.75
350.22 K, Liquid	465.1
352.11 K, Liquid	466.34
354 K, Liquid	467.34
355.9 K, Liquid	468.59
357.8 K, Liquid	469.5
359.7 K, Liquid	471.05
361.6 K, Liquid	472.21
363.51 K, Liquid	473.69
365.42 K, Liquid	475.18

Details	Molar enthalpy of transition or fusion [kcal/mol]	Normal melting temperature [°C]	Triple point temperature [K]
Crystal	–	–	259.17
Metastable crystal	–	-21.8	–
[2]	8.628	–	–
